Earlier results on three molecules are cited in patent publication US20180311177A1, “Therapeutic Nanoparticles Comprising A Therapeutic Agent and Methods of Making and Using Same” (Pfizer Inc., priority 2015, published 2018).

The term pKa denotes the pH at which an ionisable group is half protonated. The log P is a log measure of how a compound divides between an organic and an aqueous phase.

Test in data set [1]: not given
This is another data set of the same source.

Structures are written as SMILES.

Turning to `CCCCCCCCCCCCN` [dodecylamine], the pKa was 10.21. For the same molecule, the “log P” value in data set [1] is given as 4.25. Regarding `c1ccc(CNCCNCc2ccccc2)cc1` [N,N′-dibenzylethylenediamine], the “log P” value in data set [1] was 2.89. For `c1ccc(CCNCc2ccccc2)cc1` [N-(phenylmethyl)benzeneethanamine], the pKa is 9.88. Moreover, the “log P” value in data set [1] is listed as 3.54.
